Results published in patent US20240252488A1 (KOREA RESEARCH INSTITUTE OF CHEMICAL TECHNOLOGY, priority 2020, published 2024).

Tests used:
[1] = test system: FADD−/− Jurkat cells; assay: Necroptosis inhibition assay, TNF-α-induced necroptosis (CellTiter-Glo 2.0); format: cell-based, human; conditions: TNF-α 15 ng/mL; for Necroptosis inhibition assay (Rescue %) 1 μM: compound 1 μM; for Necroptosis inhibition assay (Rescue %) 10 μM: compound 10 μM; for Necroptosis inhibition assay (Rescue %) 1.1 μM: compound 1.1 µM
Method in brief: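 Necroptosis induced by 15 ng/mL TNF-α (final) for 20–24 h at 37 °C, after a 30 min room-temperature pretreatment of FADD-deficient Jurkat cells with 0.1, 1 or 10 μM compound. ATP-based luminescence gave viability, from which inhibition rate and cytotoxicity were derived.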

[2] = biological target: T1, MLKL (Homo sapiens, UniProt Q8NB16); assay: MLKL degradation assay in HepG2 cell line (western blot); format: cell-based; parameters: endogenous in cells; host or cells: HepG2 or HaCaT; conditions: cell line not given; for Degradation assay (Degradation %) 1 μM: compound 1 μM; for Degradation assay (Degradation %) 10 μM: compound 10 μM
T1 sequence (Q8NB16 1-471): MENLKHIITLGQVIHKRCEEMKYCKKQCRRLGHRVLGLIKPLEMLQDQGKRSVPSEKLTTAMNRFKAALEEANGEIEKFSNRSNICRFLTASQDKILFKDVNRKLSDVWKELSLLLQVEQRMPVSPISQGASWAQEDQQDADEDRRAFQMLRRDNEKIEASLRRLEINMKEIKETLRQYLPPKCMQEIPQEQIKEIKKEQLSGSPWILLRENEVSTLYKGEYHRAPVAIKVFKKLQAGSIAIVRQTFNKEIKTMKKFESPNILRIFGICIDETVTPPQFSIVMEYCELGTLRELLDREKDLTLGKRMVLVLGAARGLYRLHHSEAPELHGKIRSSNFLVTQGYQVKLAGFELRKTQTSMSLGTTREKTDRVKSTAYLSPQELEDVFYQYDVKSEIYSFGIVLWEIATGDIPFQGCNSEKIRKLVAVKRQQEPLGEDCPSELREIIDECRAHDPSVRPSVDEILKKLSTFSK
Description: MLKL degradation ability was evaluated in the following method.
1 mL of Human liver cancer cell line (HepG2 cell line) or human skin cell line (HaCaT cell line) was equally distributed into each well at 2.0×10^5 cells/mL in a 12-well cell culture plate. On the next day, the medium was replaced with a medium made so that the final concentration of test compound was 1 or 10 μM (1 mL/well), and incubated in 5% CO2, at 37° C. for 20-24 hours (Thermo scientific, Forma steri-cycle).
For protein preparation after incubation, cells were washed with 1×TBST, and 60 μL of RIPA lysis buffer containing Halt™ Protease and Phosphatase Inhibitor Cocktail was dispensed into each well. After scraping the cells with a scraper, the cells were recovered, and the pallet was homogenized and reacted on ice for 30 minutes. After the cells were centrifuged at 13,000 rpm, 10 minutes, 4° C., the supernatant was transferred to a new E-tube. For protein quantification, after dispensing sample and BCA (0-4 mg/ml) in a 96 well plate, 100 μL of BCA was dispensed and reacted in a 37° C. incubator for 30 minutes. After measuring the absorbance (SpectraMax, M5e, 562 nm), the amount of the sample was adjusted with the same concentration of protein and 4× Laemmli sample buffer, DW, and reacted at 100° C. for 5 minutes.
After assembling the MP TGX Precast Gel in the Mini-PROTEAN Tetra Cell, the same protein (10-15 μg) was added in an 8-10 μL volume per well, 1×Tris-Glycine Buffer was added, and loading was performed. After loading was completed, transfer was performed using Pierce G2 Fast Blotter and Pierce 1-Step Transfer Buffer. After completion of the transfer, 10 ml of SuperBlock™ Blocking Buffer was dispensed and reacted at room temperature for 10 minutes. 5% BSA containing the primary antibody was dispensed and reacted over night at 4° C. The next day, washing was performed three times with 1×TBST at room temperature for 10 minutes. 5% BSA containing the secondary antibody was dispensed and reacted at room temperature for 1 hour. Washing was performed three times with 1×TBST at room temperature for 10 minutes. The amount of protein expression was measured using chemiluminescence (LuminoGraph, ATTO).

[3] = biological target: T1, MLKL; assay: Measurement of binding affinity with MLKL receptor (competitive binding assay, Kd); parameters: made in house; host or cells: HEK 293 cell line (T7 phage in E. coli BL21-derived host is also described)
Method in brief: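 Kd comes from a bead-based competition format: compound-dependent loss of DNA-tagged, HEK 293-expressed MLKL capture, measured as eluate kinase by qPCR. Final DMSO is 0.9%.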

SMILES	Necroptosis inhibition assay (Rescue %) 1 μM [1] [%]	Necroptosis inhibition assay (Rescue %) 10 μM [1] [%]	Degradation assay (Degradation %) 1 μM [2] [%]	Degradation assay (Degradation %) 10 μM [2] [%]	Kd [3] [nM]	Necroptosis inhibition assay (Rescue %) 1 μM ([1]; FADD−/− Jurkat cells) [%]	Necroptosis inhibition assay (Rescue %) 10 μM ([1]; FADD−/− Jurkat cells) [%]	Necroptosis inhibition assay (Rescue %) 1.1 μM [1]
Nc1ncc(-c2cnn(C3CCN(CCC4CCN(C(=O)COc5cccc6c5C(=O)N(C5CCC(=O)NC5=O)C6=O)CC4)CC3)c2)cc1C(=O)OC(C(=O)Nc1ccc(F)cc1)c1ccccc1 (centres unmarked) [TDH-301, 2-((4-fluorophenyl)amino)-2-oxo-1-phenylethyl 2-amino-5-(1-(1-(2-(1-(2-((2-(2,6-dioxopiperidin-3-yl)-1,3-dioxoisoindolin-4-yl)oxy)acetyl)piperidin-4-yl)ethyl)piperidin-4-yl)-1H-pyrazol-4-yl)nicotinate]	61.06	26.7	76.3	89.97	2.9	–	–	–
Nc1ncc(-c2cnn(C3CCN(C4CC5(CCN(CC6CCN(C(=O)c7ccc8c(N9CCC(=O)NC9=O)coc8c7)CC6)CC5)C4)CC3)c2)nc1C(=O)O[C@@H](C(=O)Nc1ccc(F)cc1)c1ccccc1 [TDH-553, (R)-2-((4-fluorophenyl)amino)-2-oxo-1-phenylethyl 3-amino-6-(1-(1-(7-((1-(3-(2,4-dioxotetrahydropyrimidin-1(2H)-yl)benzofuran-6-carbonyl)piperidin-4-yl)methyl)-7-azaspiro[3.5]nonan-2-yl)piperidin-4-yl)-1H-pyrazol-4-yl)pyrazine-2-carboxylate]	–	–	84.21	91.57	0.31	58.63	−20.56	–
Nc1ncc(-c2cnn(C3CCN(CCC4CCN(C(=O)CC5CCN(c6cccc7c6C(=O)N(C6CCC(=O)NC6=O)C7=O)CC5)CC4)CC3)c2)nc1C(=O)O[C@@H](C(=O)Nc1ccc(F)cc1)c1ccccc1 (stereo partly drawn) [TDH-366, (R)-2-((4-fluorophenyl)amino)-2-oxo-1-phenylethyl 3-amino-6-(1-(1-(2-(1-(2-(1-(2-(2,6-dioxopiperidin-3-yl)-1,3-dioxoisoindolin-4-yl)piperidin-4-yl)acetyl)piperidin-4-yl)ethyl)piperidin-4-yl)-1H-pyrazol-4-yl)pyrazine-2-carboxylate]	45.56	22.39	87.27	80.23	1.2	–	–	–
Nc1ncc(-c2cnn(C3CCN(CCC4CCN(C(=O)COc5ccc6nnn(C7CCC(=O)NC7=O)c(=O)c6c5)CC4)CC3)c2)nc1C(=O)O[C@@H](C(=O)Nc1ccc(F)cc1)c1ccccc1 (stereo partly drawn) [TDH-330, (R)-2-((4-fluorophenyl)amino)-2-oxo-1-phenylethyl 3-amino-6-(1-(1-(2-(1-(2-((3-(2,6-dioxopiperidin-3-yl)-4-oxo-3,4-dihydrobenzo[d][1,2,3]triazin-6-yl)oxy)acetyl)piperidin-4-yl)ethyl)piperidin-4-yl)-1H-pyrazol-4-yl)pyrazine-2-carboxylate]	–	51.95	59.64	49.16	0.65	–	–	54.05 (1.1µM) %
Nc1ncc(-c2cnn(C3CCN(CCOC4CCN(C(=O)CC5CCN(c6ccc7c(c6)C(=O)N(C6CCC(=O)NC6=O)C7=O)CC5)CC4)CC3)c2)nc1C(=O)O[C@@H](C(=O)Nc1ccc(F)cc1)c1ccccc1 (stereo partly drawn) [TDH-372, (R)-2-((4-fluorophenyl)amino)-2-oxo-1-phenylethyl 3-amino-6-(1-(1-(2-((1-(2-(1-(2-(2,6-dioxopiperidin-3-yl)-1,3-dioxoisoindolin-5-yl)piperidin-4-yl)acetyl)piperidin-4-yl)oxy)ethyl)piperidin-4-yl)-1H-pyrazol-4-yl)pyrazine-2-carboxylate]	26.36	28.54	78.14	81.79	12	–	–	–
Nc1ncc(-c2cnn(C3CCN(C(=O)C4CCN(C(=O)C5CCN(c6ccc7nnn(C8CCC(=O)NC8=O)c(=O)c7c6)CC5)CC4)CC3)c2)nc1C(=O)O[C@@H](C(=O)Nc1ccc(F)cc1)c1ccccc1 (stereo partly drawn) [TDH-410, (R)-2-((4-fluorophenyl)amino)-2-oxo-1-phenylethyl 3-amino-6-(1-(1-(1-(1-(3-(2,6-dioxopiperidin-3-yl)-4-oxo-3,4-dihydrobenzo[d][1,2,3]triazin-6-yl)piperidine-4-carbonyl)piperidine-4-carbonyl)piperidin-4-yl)-1H-pyrazol-4-yl)pyrazine-2-carboxylate]	–	–	85.29	65.91	1.1	48.51	27.36	–
Nc1ncc(-c2cn(C3CCN(CC4CCN(c5ccc6c(c5)C(=O)N(C5CCC(=O)NC5=O)C6=O)CC4)CC3)nn2)nc1C(=O)OC(C(=O)Nc1ccc(F)cc1)c1ccccc1 (centres unmarked) [TDH-226, 2-((4-fluorophenyl)amino)-2-oxo-1-phenylethyl 3-amino-6-(1-(1-((1-(2-(2,6-dioxopiperidin-3-yl)-1,3-dioxoisoindolin-5-yl)piperidin-4-yl)methyl)piperidin-4-yl)-1H-1,2,3-triazol-4-yl)pyrazine-2-carboxylate]	36.17	17.82	–	36.06	16	–	–	–
Nc1ncc(-c2cnn(C3CN(CC4CCN(C(=O)CNc5ccc6c(c5)C(=O)N(C5CCC(=O)NC5=O)C6=O)CC4)C3)c2)nc1C(=O)O[C@@H](C(=O)Nc1ccc(F)cc1)c1ccccc1 (stereo partly drawn) [TDH-360, (R)-2-((4-fluorophenyl)amino)-2-oxo-1-phenylethyl 3-amino-6-(1-(1-((1-((2-(2,6-dioxopiperidin-3-yl)-1,3-dioxoisoindolin-5-yl)glycyl)piperidin-4-yl)methyl)azetidin-3-yl)-1H-pyrazol-4-yl)pyrazine-2-carboxylate]	–	38.05	87.25	73.06	3.3	–	–	55.49 (1.1µM) %
Nc1ncc(-c2cnn(C3CCN(CCCN4CCN(C(=O)COc5ccc6nnn(C7CCC(=O)NC7=O)c(=O)c6c5)CC4)CC3)c2)nc1C(=O)O[C@@H](C(=O)Nc1ccc(F)cc1)c1ccccc1 (stereo partly drawn) [TDH-370, (R)-2-((4-fluorophenyl)amino)-2-oxo-1-phenylethyl 3-amino-6-(1-(1-(3-(4-(2-((3-(2,6-dioxopiperidin-3-yl)-4-oxo-3,4-dihydrobenzo[d][1,2,3]triazin-6-yl)oxy)acetyl)piperazin-1-yl)propyl)piperidin-4-yl)-1H-pyrazol-4-yl)pyrazine-2-carboxylate]	52.00	24.38	91.76	85.83	0.28	–	–	–
